Results on three compounds are retold here after patent US7705178B2, “Altering the crystal size distribution of N-(phosphonomethyl) iminodiacetic acid for improved filtration and product quality” (priority 2005, dated 2010).

The structures appear in SMILES notation. “And” between values parts separate entries of the source, which are not always exact repeats. Equal values may be shown once.

The format of data set [1] is physicochemical. As to conditions: room temperature (about 25 °C); mother liquor having a relatively high impurity content. The text has this:
It has been determined that glyphosine and NMG are more soluble in PMIDA mother liquor than is PMIDA. […] Those solubility limits are higher than the impurity concentration typically encountered in the prior art processes, thus it is believed that it is unlikely that impurity partitioning to the PMIDA wetcake results from solubility considerations such as impurities precipitating from solution onto the forming PMIDA crystal.

Data set [2] is described as follows: Equilibrium PMIDA concentration in PM reactor mother liquor (interrupted feed experiments). The data set is classed as physicochemical. The note with it: for Equilibrium PMIDA in PM mother liquor (wt %): 60:40 DSIDA split. How it is done: PMIDA solubility limits change throughout the PM reaction making supersaturation prediction problematic. Several laboratory experiments were performed at 105° C. using a 60:40 DSIDA split between the hydrolyzer and PM reactor in order to evaluate supersaturation limits during seeding and the initial stages of the crystallization event. The PM feed amounts were altered such that only a portion of the typical feed amounts were used in order to simulate various stages of the PM reaction step. […] It is believed, without being bound to any particular theory, that as NaCl is produced during the PM reaction, and HCl is consumed, PMIDA solubility is suppressed. Table B presents PMIDA solubility in the PM reactor mother liquor at varying amounts of formalin addition.
Several laboratory experiments using an interrupted feed were performed to evaluate supersaturation limits during seeding and the initial stages of the crystallization event. The PM feed amounts were altered such that only a portion of the typical feed amounts were used in order to simulate various stages of the PM reaction step. The first two experiments were designed such that only about 40% of the typical feed amounts were used in order to mimic reactor conditions that occurred during seed addition of early-seeding experiments. These experiments utilized a 60:40 DSIDA split between the hydrolyzer and PM reactor, 43% formalin, and DSIDA1. In the first experiment, a spike of about 0.3% of NMG on a final batch weight basis was added to the reactor following the hydrolysis step. Following the PM reaction, about 6.4% of seed on a final batch weight basis were added after the feeds were completed and a sample was removed. Post-seed samples were removed at 20, 40 and 100 minutes following the seed addition to determine the rate at which supersaturation would be relieved. All of the samples were taken at approximately 105° C. As the temperature decreased, additional samples were taken at 75° C. and 50° C. The first experiment data are in Table 9A below.
In the second experiment, no NMG was added after the hydrolysis step, and seed crystals were not added. Post-feed samples were removed at 0, 60 and 240 minutes following completion of the feed addition. The second experiment data are in Table 9B below.
A third experiment was designed such that only about 70% of the typical feed amounts were used in order to simulate PM reactor conditions when the PMIDA crystallization event typically takes place. The experiment utilized a 60:40 DSIDA split between the hydrolyzer and PM reactor, 37% formalin, and DSIDA1. No NMG was added after the hydrolysis step, and seed crystals were not added. Following the completion of the feeds, the reactor contents were allowed to mix at 105° C. for approximately 21 hours before sampling.
The fourth experiment was designed such that 100% of the typical feed amounts were added to the reactor in order to determine the equilibrium PMIDA solubility of the mother liquor after all of the feeds had been added. This experiment utilized a 60:40 DSIDA split between the hydrolyzer and PM reactor, 37% formalin, and DSIDA1. No NMG was added after the hydrolysis step, and seed crystals were not added. Following completion of the feeds, the reactor contents were allowed to mix at 105° C. for approximately 21 hours before sampling. […] Thus, it is believed, without being bound to any particular theory, that as the PM reaction progresses, supersaturation increase is a function of both PMIDA in situ generation and a decreasing solubility limit.
A fifth experiment was designed to determine the equilibrium mother liquor PMIDA concentration just prior to the crystallization event when a 75:25 DSIDA feed split is used. In addition to the feed split, the experiment used 37% formalin and DSIDA1. No NMG was added after the hydrolysis step, and seed crystals were not added. Mother liquor samples were removed during the course of the experiment. […]

The nature of data set [3]: PMIDA solubility in acidified PM mother liquor. The class given is physicochemical. The note with it: commercial batch mother liquor acidified with HCl. How it is done:
For instance, mother liquor recovered at the end of a commercial scale batch was acidified with HCl in order to have an HCl content approximately equivalent to that found at the end of the PM reaction.
The data in Table 9B indicate that low levels of supersaturation will relieve over time. […] Solubility experiments indicate that the PMIDA solubility limit in acidified ML at 105° C. is between about 6.4 wt % and about 8.5 wt %. As noted in Tables 9A and 9B, equilibrium samples were also taken at various temperatures.

Take `CN(CC(=O)O)CP(=O)(O)O` [NMG, N-methyl-N-(phosphonomethyl)glycine]: the “solubility limit in PMIDA mother liquor” value in data set [1] was “about 3.6 wt %”.

`O=C(O)CN(CC(=O)O)CP(=O)(O)O` [PMIDA, N-(phosphonomethyl)iminodiacetic acid]: the “Equilibrium PMIDA in PM mother liquor (wt %)” value was 12.6% wt % in data set [2] (40% of total formalin added to PM reactor, 105 °C); 8.6 wt % and 8.6% wt % in data set [2] (70% of total formalin added to PM reactor, 105 °C); 5.9 wt % and 5.9% wt % in data set [2] (100% of total formalin added to PM reactor, 105 °C). For the same compound, the “PM mother liquor PMIDA concentration, averaged equilibrium data” value in data set [2] (105 °C, average of interrupted runs 1 and 2) was “about 16.4 wt %”. Besides, the “ML PMIDA (wt %), equilibrium” value stood at 3.3 wt % in data set [2] (PM interrupted run 1 (about 40% of feeds, seeded, NMG spike), equilibrium at 50 °C); 5.3 wt % in data set [2] (PM interrupted run 1 (about 40% of feeds, seeded, NMG spike), equilibrium at 75 °C); 12.4 wt % in data set [2] (PM interrupted run 1 (about 40% of feeds, seeded, NMG spike), equilibrium at 105 °C); 4.0 wt % in data set [2] (PM interrupted run 2 (about 40% of feeds, no seed, no NMG), equilibrium at 50 °C); 8.1 wt % in data set [2] (PM interrupted run 2 (about 40% of feeds, no seed, no NMG), equilibrium at 75 °C); 13.8 wt % in data set [2] (PM interrupted run 2 (about 40% of feeds, no seed, no NMG), equilibrium at 105 °C). For the same compound, the “ML PMIDA (wt %), equilibrium” value in data set [2] (PM interrupted run 5, 75:25 DSIDA split, 84.0% of total formalin added, equilibrium at 105 °C, about 19 hours) came out at 14.4 wt %. The “PMIDA Solubility in PM Mother Liquor, PM (wt %)” value in data set [3] (20 °C) is reported as 0.52 wt %; in data set [3] (50 °C), 1.26 wt %; in data set [3] (70 °C), 2.29 wt %; in data set [3] (90 °C) it was 4.15 wt %; in data set [3] (115 °C), 8.72 wt %.

As to `O=C(O)CN(CP(=O)(O)O)CP(=O)(O)O` [glyphosine, N,N-bis-(phosphonomethyl)glycine], in data set [1], the “solubility limit in PMIDA mother liquor” value is recorded as “about 3.9 wt %”.
